Test results published in publication PMC9223764, “In Vitro Selection and Characterization of HIV-1 Variants with Increased Resistance to LP-40, Enfuvirtide-Based Lipopeptide Inhibitor” (International Journal of Molecular Sciences, 2022).
Where a SMILES comes first, the peptide text is derived from it. The star is where a group is joined. Palmitoyl = CCCCCCCCCCCCCCCC(=O)*

Experiments:
Assay type in all cases: cell-based
[1] = test system: LP40-V13 pseudovirus (HIV-1 NL4-3 Env mutant); conditions: for IC50: LP40-V13 (Env selected at LP-40 200 µM), TZM-bl cells, 48 h, luciferase, mean ± SD, triplicate, repeated three times
Method: (§1) To simulate the sequence changes of viral resistance genes under different drug concentration pressures, we constructed the Env genes under different drug concentration pressures in the PCDNA3.1 vector and obtained a series of mutations. […] T20-V 6~12, T20-V 13~14, and T 20-V 15~18 were constructed at concentrations of 200 µM (P21), 400 µM (P24), and 2000 µM (P32), respectively. Similarly, the LP-40 pressure concentrations were 0.3 µM, 8 µM, 20 µM, and 200 µM, respectively, and the constructs were numbered LP40-V 1~5, LP40-V 6~8, LP40-V 9~11, and LP40-V 12~15. Resistance mutations will cause varying levels of damage to the function of the pseudoviral envelope proteins. Here, we explored how serial mutations affect the function of viral envelope proteins. Based on this problem, we performed a single round of quantitative P24-infection experiments, packaging the pseudovirus with a previously constructed series of mutant plasmids. We compared the invasion ability of the HIV-1 wild-type and mutant pseudoviruses toward target cells under the same P24 content (using the invasion capacity of each subtype as 100%).
(§2) The infectivity of HIV Env mutants and the inhibitory activities of membrane fusion inhibitors on mutants in TZM-bl cells were measured using a single-cycle infection assay as described previously. Briefly, the HIV pseudovirus was packed using an Env-coding plasmid, and pSG3ΔEnv was co-transfected into HEK293T cells. pSG3ΔEnv encodes an Env-defective, luciferase-expressing HIV-1 genome. After the pseudoviruses were harvested and filtrated, the amount of pseudoviruses was fixed via P24 antigen, and their infectivity was determined in TZM-bl cells. In order to measure the inhibitory activities of the inhibitors, inhibitors diluted serially 3-fold were mixed with an equal volume of pseudoviruses, and then 100 µL 1 × 10^5/mL TZM-bl cells were added to the mixture and incubated at 37 °C with 5% CO2 for 48 h. After that, TZM-bl cells were lysed using reporter lysis buffer, and IC50 values were calculated according to luciferase activity measured by luciferase assay reagents and a luminescence counter (Promega, Madison, WI, USA).

[2] = test system: LP40-V14 pseudovirus (HIV-1 NL4-3 Env mutant); conditions: for IC50: LP40-V14 (Env selected at LP-40 200 µM), TZM-bl cells, 48 h, luciferase, mean ± SD, triplicate, repeated three times
Method: as §1, §2

[3] = test system: LP40-V9 pseudovirus (HIV-1 NL4-3 Env mutant); conditions: for IC50: LP40-V9 (Env selected at LP-40 20 µM), TZM-bl cells, 48 h, luciferase, mean ± SD, triplicate, repeated three times
Method: as §1, §2

[4] = test system: T20-V1 pseudovirus (HIV-1 NL4-3 Env mutant); conditions: for IC50: T20-V1 (Env selected at T20 12 µM, P9), TZM-bl cells, 48 h, luciferase, mean ± SD, triplicate, repeated three times
Method: as §1, §2

[5] = test system: T20-V13 pseudovirus (HIV-1 NL4-3 Env mutant); conditions: for IC50: T20-V13 (Env selected at T20 400 µM, P24), TZM-bl cells, 48 h, luciferase, mean ± SD, triplicate, repeated three times
Method: as §1, §2

[6] = test system: T20-V15 pseudovirus (HIV-1 NL4-3 Env mutant); conditions: for IC50: T20-V15 (Env selected at T20 2000 µM, P32), TZM-bl cells, 48 h, luciferase, mean ± SD, triplicate, repeated three times
Method: as §1, §2

[7] = test system: T20-V17 pseudovirus (HIV-1 NL4-3 Env mutant); conditions: for IC50: T20-V17 (Env selected at T20 2000 µM, P32), TZM-bl cells, 48 h, luciferase, mean ± SD, triplicate, repeated three times
Method: as §1, §2

[8] = test system: T20-V18 pseudovirus (HIV-1 NL4-3 Env mutant); conditions: for IC50: T20-V18 (Env selected at T20 2000 µM, P32), TZM-bl cells, 48 h, luciferase, mean ± SD, triplicate, repeated three times
Method: as §1, §2

[9] = test system: T20-V2 pseudovirus (HIV-1 NL4-3 Env mutant); conditions: for IC50: T20-V2 (Env selected at T20 12 µM, P9), TZM-bl cells, 48 h, luciferase, mean ± SD, triplicate, repeated three times
Method: as §1, §2

[10] = test system: T20-V7 pseudovirus (HIV-1 NL4-3 Env mutant); conditions: for IC50: T20-V7 (Env selected at T20 200 µM, P21), TZM-bl cells, 48 h, luciferase, mean ± SD, triplicate, repeated three times
Method: as §1, §2

[11] = test system: T20-V8 pseudovirus (HIV-1 NL4-3 Env mutant); conditions: T20-V8 (Env selected at T20 200 µM, P21); TZM-bl cells, 48 h, luciferase; mean ± SD, triplicate, repeated three times
Method: as §1, §2

[12] = test system: HIV-1 NL4-3 gp41 NDQEEDYN pseudovirus; conditions: Table 3; for IC50: NDQEEDYN (E109N, N113D, E119Q, D121E, N125E, S129D, H132Y, S133N), TZM-bl cells, 48 h, luciferase, means, triplicate, repeated three times
[13] = test system: HIV-1 NL4-3 gp41 NDQEEDYN/L33S/I37T pseudovirus; conditions: Table 3; for IC50: NDQEEDYN/L33S/I37T, TZM-bl cells, 48 h, luciferase, means, triplicate, repeated three times
Method in brief: (§3)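 Env-pseudotyped HIV-1 (pSG3ΔEnv backbone, luciferase reporter) made in HEK293T and normalised by p24. 3-fold serial inhibitor dilutions mixed with virus, then TZM-bl cells added, 48 h at 37 °C. Single-cycle infection; IC50 from luciferase activity in lysed cells.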

[14] = test system: HIV-1 NL4-3 gp41 V38A/N42T pseudovirus; conditions: Table 3; for IC50: V38A/N42T, TZM-bl cells, 48 h, luciferase, means, triplicate, repeated three times
Method in brief: as §3

| Compound | IC50 [1] | IC50 [2] | IC50 [3] | IC50 [4] | IC50 [5] | IC50 [6] | IC50 [7] | IC50 [8] | IC50 [9] | IC50 [10] | IC50 [11] | IC50 [12] | IC50 [13] | IC50 [14] | further results |
| --- | --- | --- | --- | --- | --- | --- | --- | --- | --- | --- | --- | --- | --- | --- | --- |
| CCCCCCCCCCCCCCCC(=O)NCCCC[C@H](NC(=O)[C@H](CC(=O)O)NC(=O)[C@H](CC(C)C)NC(=O)[C@H](CCC(=O)O)NC(=O)[C@H](CC(C)C)NC(=O)[C@H](CC(C)C)NC(=O)[C@H](CCC(=O)O)NC(=O)[C@H](CCC(N)=O)NC(=O)[C@H](CCC(=O)O)NC(=O)[C@H](CC(N)=O)NC(=O)[C@H](CCCCN)NC(=O)[C@H](CCC(=O)O)NC(=O)[C@H](CCC(N)=O)NC(=O)[C@H](CCC(N)=O)NC(=O)[C@H](CC(N)=O)NC(=O)[C@H](CCC(N)=O)NC(=O)[C@H](CO)NC(=O)[C@H](CCC(=O)O)NC(=O)[C@H](CCC(=O)O)NC(=O)[C@@H](NC(=O)[C@H](CC(C)C)NC(=O)[C@H](CO)NC(=O)[C@H](Cc1c[nH]cn1)NC(=O)[C@@H](NC(=O)[C@H](CC(C)C)NC(=O)[C@H](CO)NC(=O)[C@@H](NC(=O)[C@H](Cc1ccc(O)cc1)NC(C)=O)[C@@H](C)O)[C@@H](C)CC)[C@@H](C)CC)C(N)=O [LP-40] (Ac-YTSLIHSLIEESQNQQEKNEQELLELDK(Palmitoyl)-NH2) | > 6.25 µM | > 6.25 µM | 2.89 ± 0.431 µM | 0.0401 ± 0.00862 µM | 3.19 ± 0.207 µM | > 6.25 µM | 5.17 ± 1.02 µM | > 6.25 µM | 0.0592 ± 0.0159 µM | 2.73 ± 0.212 µM | > 6.25 µM | 0.1 µM | 3.28 µM | 4.07 µM | Fold change in IC50 ([1]; LP40-V13 relative to WT NL4-3, Table 1): >227.43 fold; Fold change in IC50 ([2]; LP40-V14 relative to WT NL4-3, Table 1): >227.43 fold; Fold change in IC50 ([3]; LP40-V9 relative to WT NL4-3, Table 1): 97.22 fold; Fold change in IC50 ([4]; T20-V1 relative to WT NL4-3, Table 1): 1.35 fold; Fold change in IC50 ([5]; T20-V13 relative to WT NL4-3, Table 1): 107.32 fold; Fold change in IC50 ([6]; T20-V15 relative to WT NL4-3, Table 1): >227.43 fold; Fold change in IC50 ([7]; T20-V17 relative to WT NL4-3, Table 1): 174.12 fold; Fold change in IC50 ([8]; T20-V18 relative to WT NL4-3, Table 1): >227.43 fold; Fold change in IC50 ([9]; T20-V2 relative to WT NL4-3, Table 1): 2.00 fold; Fold change in IC50 ([10]; T20-V7 relative to WT NL4-3, Table 1): 91.82 fold; Fold change in IC50 ([12]; NDQEEDYN relative to WT NL4-3): 3.67 fold; Fold change in IC50 ([13]; NDQEEDYN/L33S/I37T relative to WT NL4-3): 120.00 fold; Fold change in IC50 ([14]; V38A/N42T relative to WT NL4-3): 149.15 fold |
| Enfuvirtide | 5.17 ± 2.46 µM | 4.91 ± 2 µM | 1.27 ± 0.315 µM | 0.0577 ± 0.00723 µM | 4.01 ± 0.571 µM | 2.09 ± 0.248 µM | 2.89 ± 0.882 µM | 6.15 ± 0.475 µM | 0.147 ± 0.0394 µM | 2.81 ± 0.458 µM | 5.28 ± 1.1 µM | 0.0625 µM | 3.79 µM | 3.35 µM | – |
